Results: ChEMBL document CHEMBL3431459, “Roche carnitine palmitoyltransferase modulator screening data (supplementary data associated with the publication CHEMBL2216752)”
In brackets after ≈: the same amount, converted by molar mass.

Assays:
[1] = target: T1, Carnitine O-palmitoyltransferase 2, mitochondrial (Homo sapiens, UniProt P23786); experiment: (§1) SUPPLEMENTARY: Inhibition of Carnitine palmitoyltransferase 2
T1 sequence (P23786 whole entry): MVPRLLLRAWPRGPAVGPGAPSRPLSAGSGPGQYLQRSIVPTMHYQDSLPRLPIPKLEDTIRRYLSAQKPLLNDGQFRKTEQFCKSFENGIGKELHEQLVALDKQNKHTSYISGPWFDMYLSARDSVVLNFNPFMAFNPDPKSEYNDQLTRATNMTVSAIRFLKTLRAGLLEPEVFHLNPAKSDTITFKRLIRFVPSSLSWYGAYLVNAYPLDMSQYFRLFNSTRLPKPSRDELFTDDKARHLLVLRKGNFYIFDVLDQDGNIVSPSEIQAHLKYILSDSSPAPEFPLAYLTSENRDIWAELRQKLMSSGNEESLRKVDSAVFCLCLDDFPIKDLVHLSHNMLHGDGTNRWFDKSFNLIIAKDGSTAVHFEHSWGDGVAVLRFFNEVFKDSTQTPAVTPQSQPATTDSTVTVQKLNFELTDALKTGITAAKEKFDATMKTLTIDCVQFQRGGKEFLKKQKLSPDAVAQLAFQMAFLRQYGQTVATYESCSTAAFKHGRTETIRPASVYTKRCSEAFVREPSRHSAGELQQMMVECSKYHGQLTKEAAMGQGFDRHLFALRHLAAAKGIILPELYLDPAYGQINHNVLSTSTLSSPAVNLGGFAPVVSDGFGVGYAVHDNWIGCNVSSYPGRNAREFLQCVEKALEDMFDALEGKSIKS

[2] = target: T2, Carnitine O-palmitoyltransferase 2, mitochondrial (Rattus norvegicus, UniProt P18886); experiment: as §1
T2 sequence (P18886 whole entry): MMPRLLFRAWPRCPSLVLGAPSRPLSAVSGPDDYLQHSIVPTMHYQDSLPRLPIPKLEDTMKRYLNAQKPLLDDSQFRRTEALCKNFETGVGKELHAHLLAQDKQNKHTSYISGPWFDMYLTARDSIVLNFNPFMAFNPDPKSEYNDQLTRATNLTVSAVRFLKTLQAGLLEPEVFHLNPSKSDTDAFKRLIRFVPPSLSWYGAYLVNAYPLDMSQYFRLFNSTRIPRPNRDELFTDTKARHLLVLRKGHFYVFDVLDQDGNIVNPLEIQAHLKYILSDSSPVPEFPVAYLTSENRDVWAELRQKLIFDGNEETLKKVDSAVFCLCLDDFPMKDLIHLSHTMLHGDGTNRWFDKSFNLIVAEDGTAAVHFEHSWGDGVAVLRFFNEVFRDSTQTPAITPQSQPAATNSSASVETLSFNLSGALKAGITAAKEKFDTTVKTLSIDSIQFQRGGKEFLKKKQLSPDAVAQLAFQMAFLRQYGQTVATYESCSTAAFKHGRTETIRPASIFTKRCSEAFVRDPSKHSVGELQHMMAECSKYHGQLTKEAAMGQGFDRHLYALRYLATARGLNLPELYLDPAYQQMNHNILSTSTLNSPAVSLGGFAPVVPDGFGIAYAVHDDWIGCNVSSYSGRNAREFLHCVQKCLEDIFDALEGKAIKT

[3] = SUPPLEMENTARY: Lyophilisation Solubility Assay (LYSA); assay type: physicochemical; conditions: read-out: Kinetic_solubility
[4] = SUPPLEMENTARY: PAMPA permeability assay; assay type: physicochemical; conditions: read-out: Permeability
[5] = target: T3, Carnitine O-palmitoyltransferase 1, muscle isoform (Homo sapiens, UniProt Q92523); experiment: SUPPLEMENTARY: Inhibition of Carnitine palmitoyltransferase 1, muscle isoform; set-up: species or system Muscle tissue
T3 sequence (Q92523 whole entry): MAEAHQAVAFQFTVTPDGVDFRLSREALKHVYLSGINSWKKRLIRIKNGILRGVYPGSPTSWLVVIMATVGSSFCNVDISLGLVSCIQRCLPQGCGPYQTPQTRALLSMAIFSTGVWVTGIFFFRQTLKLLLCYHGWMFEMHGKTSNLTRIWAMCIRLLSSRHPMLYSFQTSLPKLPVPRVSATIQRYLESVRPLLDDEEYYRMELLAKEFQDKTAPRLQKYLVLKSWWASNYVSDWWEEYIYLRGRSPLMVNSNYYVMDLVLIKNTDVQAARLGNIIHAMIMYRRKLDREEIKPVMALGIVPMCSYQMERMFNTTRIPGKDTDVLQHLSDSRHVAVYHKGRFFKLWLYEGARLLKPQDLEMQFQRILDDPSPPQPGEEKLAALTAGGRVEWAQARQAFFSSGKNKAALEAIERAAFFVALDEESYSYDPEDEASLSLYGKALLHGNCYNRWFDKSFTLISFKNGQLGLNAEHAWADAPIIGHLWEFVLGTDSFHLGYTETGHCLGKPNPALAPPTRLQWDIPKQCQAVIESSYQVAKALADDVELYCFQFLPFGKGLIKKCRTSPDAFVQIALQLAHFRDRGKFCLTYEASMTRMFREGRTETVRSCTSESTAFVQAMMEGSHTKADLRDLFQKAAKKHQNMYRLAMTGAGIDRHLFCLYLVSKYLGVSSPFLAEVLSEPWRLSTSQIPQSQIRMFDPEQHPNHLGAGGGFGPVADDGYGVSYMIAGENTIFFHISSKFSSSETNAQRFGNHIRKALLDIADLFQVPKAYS

[6] = target: T4, Carnitine O-palmitoyltransferase 1, liver isoform (Homo sapiens, UniProt P50416); experiment: (§2) SUPPLEMENTARY: Inhibition of Carnitine palmitoyltransferase 1, liver isoform
T4 sequence (P50416 whole entry): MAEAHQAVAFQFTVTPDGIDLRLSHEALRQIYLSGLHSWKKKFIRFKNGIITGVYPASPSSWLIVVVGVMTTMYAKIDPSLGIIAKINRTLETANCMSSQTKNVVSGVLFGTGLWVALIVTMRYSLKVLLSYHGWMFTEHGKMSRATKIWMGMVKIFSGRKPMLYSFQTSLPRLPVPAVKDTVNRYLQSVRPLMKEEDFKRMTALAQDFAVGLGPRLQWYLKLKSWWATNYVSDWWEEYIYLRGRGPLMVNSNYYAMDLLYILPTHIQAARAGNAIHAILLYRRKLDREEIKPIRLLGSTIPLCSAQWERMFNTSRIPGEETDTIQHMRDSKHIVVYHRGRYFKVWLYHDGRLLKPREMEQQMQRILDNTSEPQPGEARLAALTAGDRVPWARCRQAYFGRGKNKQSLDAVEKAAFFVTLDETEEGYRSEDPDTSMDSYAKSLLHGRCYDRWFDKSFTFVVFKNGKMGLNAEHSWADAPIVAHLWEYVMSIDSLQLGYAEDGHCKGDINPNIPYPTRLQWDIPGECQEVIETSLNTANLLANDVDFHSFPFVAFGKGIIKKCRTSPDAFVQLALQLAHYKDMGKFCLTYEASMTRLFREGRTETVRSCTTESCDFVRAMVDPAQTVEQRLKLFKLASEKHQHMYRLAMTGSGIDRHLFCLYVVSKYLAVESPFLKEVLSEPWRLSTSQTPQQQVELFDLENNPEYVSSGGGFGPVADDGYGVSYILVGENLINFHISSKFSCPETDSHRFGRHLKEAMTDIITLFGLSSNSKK

[7] = target: T5, Carnitine O-palmitoyltransferase 1, liver isoform (Rattus norvegicus, UniProt P32198); experiment: as §2
T5 sequence (P32198 whole entry): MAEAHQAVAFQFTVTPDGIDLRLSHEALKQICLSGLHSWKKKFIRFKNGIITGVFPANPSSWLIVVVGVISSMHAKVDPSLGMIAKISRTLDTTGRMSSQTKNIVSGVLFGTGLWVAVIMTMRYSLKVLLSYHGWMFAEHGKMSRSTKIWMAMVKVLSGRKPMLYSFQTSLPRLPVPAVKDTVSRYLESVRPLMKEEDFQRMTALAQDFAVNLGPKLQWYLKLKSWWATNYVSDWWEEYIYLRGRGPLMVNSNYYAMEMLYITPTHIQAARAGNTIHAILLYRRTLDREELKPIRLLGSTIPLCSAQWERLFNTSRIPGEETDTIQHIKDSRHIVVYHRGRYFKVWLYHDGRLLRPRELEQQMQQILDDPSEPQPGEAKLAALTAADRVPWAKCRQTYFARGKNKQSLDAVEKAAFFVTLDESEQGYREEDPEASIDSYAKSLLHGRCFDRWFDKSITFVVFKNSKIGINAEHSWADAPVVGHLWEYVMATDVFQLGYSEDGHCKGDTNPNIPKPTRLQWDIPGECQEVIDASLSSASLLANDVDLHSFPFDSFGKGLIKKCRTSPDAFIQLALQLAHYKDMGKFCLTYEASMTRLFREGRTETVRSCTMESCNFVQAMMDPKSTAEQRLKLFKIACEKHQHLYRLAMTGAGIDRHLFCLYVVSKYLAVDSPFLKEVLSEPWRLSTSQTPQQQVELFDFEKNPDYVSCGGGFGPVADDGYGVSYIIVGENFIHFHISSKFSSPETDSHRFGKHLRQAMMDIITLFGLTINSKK

[8] = SUPPLEMENTARY: Lipophilicity (log D) Determination by high-throughput shake-flask; assay type: physicochemical; conditions: octanol/water

COc1ccc(Cl)cc1S(=O)(=O)N1COCc2ccc(C(=O)Nc3nc(CC(=O)O)cs3)cc21
IC50 [1]: > 100000 nM
IC50 [2]: > 100000 nM
solubility kinetic [3]: 7 µg/mL (≈ 13.4 µM)
Papp [4]: 1.31 ×10⁻⁶ cm/s
IC50 [5]: 1380 nM
IC50 [6]: 54 nM
IC50 [7]: 82.9 nM
logD [8]: -0.47

O=C([C@H]1CCCCN1C(=O)COc1ccccc1)N1Cc2cc(F)c(OC3CCOCC3)cc2C1
IC50 [1]: 507 nM
IC50 [2]: 1310 nM
solubility kinetic [3]: 37 µg/mL (≈ 76.7 µM)
Papp [4]: 3.57 ×10⁻⁶ cm/s
IC50 [5]: > 100000 nM
IC50 [6]: 210 nM
IC50 [7]: 76.8 nM
logD [8]: 2.45

O=C(COc1ccccc1)N1CCCC[C@@H]1c1noc(-c2ccc3[nH]cnc3c2)n1
IC50 [1]: 15000 nM
IC50 [2]: 66800 nM
solubility kinetic [3]: 60 µg/mL (≈ 149 µM)
Papp [4]: 3.03 ×10⁻⁶ cm/s
IC50 [5]: 33100 nM
IC50 [6]: 29.2 nM
IC50 [7]: 234 nM
logD [8]: 2.26

Nc1cccc(-c2n[nH]c([C@H]3CCCCN3C(=O)COc3ccccc3)n2)c1
IC50 [1]: > 100000 nM
IC50 [2]: > 100000 nM
solubility kinetic [3]: 71 µg/mL (≈ 188 µM)
Papp [4]: 5.37 ×10⁻⁶ cm/s
IC50 [5]: > 100000 nM
IC50 [6]: 109 nM
IC50 [7]: 815 nM
logD [8]: 2.42

N#Cc1cccc(-c2n[nH]c([C@H]3CCCCN3C(=O)COc3ccccc3)n2)c1
IC50 [1]: 29800 nM
IC50 [2]: 33800 nM
solubility kinetic [3]: 31 µg/mL (≈ 80 µM)
Papp [4]: 2.96 ×10⁻⁶ cm/s
IC50 [5]: > 100000 nM
IC50 [6]: 161 nM
IC50 [7]: 219 nM
logD [8]: 2.98

O=C1COc2ccc(-c3n[nH]c([C@H]4CCCCN4C(=O)COc4ccccc4)n3)cc2N1
IC50 [1]: 49000 nM
IC50 [2]: 82800 nM
solubility kinetic [3]: 62 µg/mL (≈ 143 µM)
Papp [4]: 0.95 ×10⁻⁶ cm/s
IC50 [5]: 94200 nM
IC50 [6]: 121 nM
IC50 [7]: 61.6 nM
logD [8]: 2.57

O=C1COc2ccc(-c3nc([C@H]4CCCCN4C(=O)COc4ccccc4)no3)cc2N1
IC50 [1]: > 100000 nM
IC50 [2]: > 100000 nM
solubility kinetic [3]: 35 µg/mL (≈ 80.6 µM)
Papp [4]: 3.74 ×10⁻⁶ cm/s
IC50 [5]: > 100000 nM
IC50 [6]: 35.8 nM
IC50 [7]: 89.3 nM
logD [8]: 3.12

Cc1cc(C)cc(S(=O)(=O)c2nn(C)c3ccc(C(=O)Nc4ccc(C(=O)O)cc4)cc23)c1
IC50 [1]: 2460 nM
IC50 [2]: 10000 nM
solubility kinetic [3]: 14 µg/mL (≈ 30.2 µM)
Papp [4]: 0.76 ×10⁻⁶ cm/s
IC50 [5]: 2570 nM
IC50 [6]: 74.9 nM
IC50 [7]: 27.2 nM
logD [8]: 2.21

O=C(c1cc(-c2noc([C@H]3CCCCN3C(=O)COc3ccccc3)n2)ccn1)N1CCOCC1
IC50 [1]: > 100000 nM
IC50 [2]: 89700 nM
solubility kinetic [3]: > 523 µg/mL
Papp [4]: 5.89 ×10⁻⁶ cm/s
IC50 [5]: > 100000 nM
IC50 [6]: 80.4 nM
IC50 [7]: 899 nM
logD [8]: 1.75

COc1ccc(Cl)cc1S(=O)(=O)N1CCSc2ccc(C(=O)Nc3ccc(C(=O)O)c(F)c3)cc21
IC50 [1]: 1990 nM
IC50 [2]: 9040 nM
solubility kinetic [3]: 7 µg/mL (≈ 13 µM)
Papp [4]: 2.57 ×10⁻⁶ cm/s
IC50 [5]: 400 nM
IC50 [6]: 84 nM
IC50 [7]: 70.5 nM
logD [8]: 2.6

COc1ccc(Cl)cc1S(=O)(=O)N1CCOc2c(Cl)cc(C(=O)Nc3ccc(CC(=O)O)cc3)cc21
IC50 [1]: 78500 nM
IC50 [2]: > 100000 nM
solubility kinetic [3]: 44 µg/mL (≈ 79.8 µM)
Papp [4]: 3.23 ×10⁻⁶ cm/s
IC50 [5]: 1090 nM
IC50 [6]: 122 nM
IC50 [7]: 100 nM
logD [8]: 0.88

Nc1ccc(-c2noc([C@H]3CCCCN3C(=O)COc3ccccc3)n2)cn1
IC50 [1]: > 100000 nM
IC50 [2]: 30200 nM
solubility kinetic [3]: 81 µg/mL (≈ 213 µM)
Papp [4]: 4.44 ×10⁻⁶ cm/s
IC50 [5]: > 100000 nM
IC50 [6]: 34.4 nM
IC50 [7]: 221 nM
logD [8]: 2.62

O=C1CN(c2cccc(-c3nc([C@H]4CCCCN4C(=O)COc4ccccc4)no3)c2)C(=O)N1
IC50 [1]: 10300 nM
IC50 [2]: 58700 nM
solubility kinetic [3]: 127 µg/mL (≈ 275 µM)
Papp [4]: 3.43 ×10⁻⁶ cm/s
IC50 [5]: > 100000 nM
IC50 [6]: 65.1 nM
IC50 [7]: 102 nM
logD [8]: 2.62

NC(=O)c1n[nH]c2cc(-c3noc([C@H]4CCCCN4C(=O)COc4ccccc4)n3)ccc12
IC50 [1]: > 100000 nM
IC50 [2]: > 100000 nM
solubility kinetic [3]: 5 µg/mL (≈ 11.2 µM)
Papp [4]: 2.35 ×10⁻⁶ cm/s
IC50 [5]: > 100000 nM
IC50 [6]: 63.5 nM
IC50 [7]: 1070 nM
logD [8]: 3.04
